Source: patent US5430005A, “Herbicidal compositions” (Monsanto Company, priority 1991, dated 1995)

Experiment: Natural pH of aqueous solution
Format: physicochemical

For `O=C(O)CNCP(=O)(O)O` [N-phosphonomethylglycine], the “natural pH of aqueous solution” value was about 4.7.
